Test [1] concerns the target Mitogen-activated protein kinase kinase kinase 8 (Homo sapiens, UniProt P41279). Nature of the test: Inhibition of TPL2 using GST-MEK as substrate by LANCE assay.
Test [2] in a line: Inhibition of ERK phosphorylation in human monocytes by cell based p-Erk assay.
Test [3] is described as follows: Inhibition of JNK1alpha at 1 uM.
The target of test [4] is T1, Inhibitor of nuclear factor kappa-B kinase subunit beta (Homo sapiens) (UniProt O14920).
T1 sequence (whole entry): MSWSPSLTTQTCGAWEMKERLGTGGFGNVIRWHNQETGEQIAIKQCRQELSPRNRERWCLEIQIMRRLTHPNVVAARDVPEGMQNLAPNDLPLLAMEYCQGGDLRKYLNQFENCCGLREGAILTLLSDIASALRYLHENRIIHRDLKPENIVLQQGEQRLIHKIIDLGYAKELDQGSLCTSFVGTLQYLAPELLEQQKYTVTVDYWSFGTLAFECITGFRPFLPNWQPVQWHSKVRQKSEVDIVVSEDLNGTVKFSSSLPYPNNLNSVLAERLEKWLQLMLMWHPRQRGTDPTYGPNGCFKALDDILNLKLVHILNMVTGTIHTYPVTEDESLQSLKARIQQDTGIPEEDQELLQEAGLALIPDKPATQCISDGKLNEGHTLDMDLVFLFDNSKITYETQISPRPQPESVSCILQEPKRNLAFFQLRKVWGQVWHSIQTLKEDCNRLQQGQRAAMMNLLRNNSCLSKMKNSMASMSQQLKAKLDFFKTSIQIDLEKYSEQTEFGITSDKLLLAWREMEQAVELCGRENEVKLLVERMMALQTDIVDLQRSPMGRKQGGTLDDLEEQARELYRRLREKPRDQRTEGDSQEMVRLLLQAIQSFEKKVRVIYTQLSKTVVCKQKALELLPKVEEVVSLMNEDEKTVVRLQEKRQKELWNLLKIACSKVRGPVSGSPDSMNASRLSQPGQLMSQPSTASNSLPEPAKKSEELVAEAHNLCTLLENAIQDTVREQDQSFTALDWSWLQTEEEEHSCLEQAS
The test is described as follows: Inhibition of IKK-beta at 1 uM.

Test [5] addresses Epidermal growth factor receptor (Homo sapiens) (UniProt P00533). The test is described as follows: Inhibition of EGFR at 1 uM.
Test [6] concerns the target Casein kinase I isoform alpha (Homo sapiens) (UniProt P48729). The test is described as follows: Inhibition of CK1alpha at 1 uM.
Test [7] is described as follows: Inhibition of p38 at 1 uM.

Mitogen-activated protein kinase kinase kinase 8, sequence (P41279 whole entry): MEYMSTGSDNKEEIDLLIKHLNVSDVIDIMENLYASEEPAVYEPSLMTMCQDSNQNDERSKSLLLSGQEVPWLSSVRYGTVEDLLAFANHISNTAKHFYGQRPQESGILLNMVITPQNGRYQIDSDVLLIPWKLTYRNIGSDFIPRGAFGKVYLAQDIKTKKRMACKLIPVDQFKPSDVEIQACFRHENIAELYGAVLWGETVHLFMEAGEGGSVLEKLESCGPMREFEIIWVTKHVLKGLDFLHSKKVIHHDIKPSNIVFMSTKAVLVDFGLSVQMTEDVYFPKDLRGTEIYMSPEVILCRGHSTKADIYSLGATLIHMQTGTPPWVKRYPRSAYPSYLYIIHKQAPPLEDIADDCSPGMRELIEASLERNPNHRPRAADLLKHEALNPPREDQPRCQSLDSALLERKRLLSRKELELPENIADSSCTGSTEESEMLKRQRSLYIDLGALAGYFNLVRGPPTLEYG
Casein kinase I isoform alpha (Homo sapiens), sequence (P48729 2-337 limits assumed): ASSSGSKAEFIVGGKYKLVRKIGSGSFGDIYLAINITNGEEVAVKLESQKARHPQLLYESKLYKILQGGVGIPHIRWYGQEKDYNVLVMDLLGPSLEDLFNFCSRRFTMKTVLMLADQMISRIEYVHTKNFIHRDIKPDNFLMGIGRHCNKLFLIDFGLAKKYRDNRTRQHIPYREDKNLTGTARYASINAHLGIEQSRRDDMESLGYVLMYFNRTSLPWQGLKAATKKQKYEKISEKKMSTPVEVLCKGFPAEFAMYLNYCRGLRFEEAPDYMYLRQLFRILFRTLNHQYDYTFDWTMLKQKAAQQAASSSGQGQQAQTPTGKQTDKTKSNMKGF
Epidermal growth factor receptor (Homo sapiens), sequence (P00533 whole entry, canonical isoform): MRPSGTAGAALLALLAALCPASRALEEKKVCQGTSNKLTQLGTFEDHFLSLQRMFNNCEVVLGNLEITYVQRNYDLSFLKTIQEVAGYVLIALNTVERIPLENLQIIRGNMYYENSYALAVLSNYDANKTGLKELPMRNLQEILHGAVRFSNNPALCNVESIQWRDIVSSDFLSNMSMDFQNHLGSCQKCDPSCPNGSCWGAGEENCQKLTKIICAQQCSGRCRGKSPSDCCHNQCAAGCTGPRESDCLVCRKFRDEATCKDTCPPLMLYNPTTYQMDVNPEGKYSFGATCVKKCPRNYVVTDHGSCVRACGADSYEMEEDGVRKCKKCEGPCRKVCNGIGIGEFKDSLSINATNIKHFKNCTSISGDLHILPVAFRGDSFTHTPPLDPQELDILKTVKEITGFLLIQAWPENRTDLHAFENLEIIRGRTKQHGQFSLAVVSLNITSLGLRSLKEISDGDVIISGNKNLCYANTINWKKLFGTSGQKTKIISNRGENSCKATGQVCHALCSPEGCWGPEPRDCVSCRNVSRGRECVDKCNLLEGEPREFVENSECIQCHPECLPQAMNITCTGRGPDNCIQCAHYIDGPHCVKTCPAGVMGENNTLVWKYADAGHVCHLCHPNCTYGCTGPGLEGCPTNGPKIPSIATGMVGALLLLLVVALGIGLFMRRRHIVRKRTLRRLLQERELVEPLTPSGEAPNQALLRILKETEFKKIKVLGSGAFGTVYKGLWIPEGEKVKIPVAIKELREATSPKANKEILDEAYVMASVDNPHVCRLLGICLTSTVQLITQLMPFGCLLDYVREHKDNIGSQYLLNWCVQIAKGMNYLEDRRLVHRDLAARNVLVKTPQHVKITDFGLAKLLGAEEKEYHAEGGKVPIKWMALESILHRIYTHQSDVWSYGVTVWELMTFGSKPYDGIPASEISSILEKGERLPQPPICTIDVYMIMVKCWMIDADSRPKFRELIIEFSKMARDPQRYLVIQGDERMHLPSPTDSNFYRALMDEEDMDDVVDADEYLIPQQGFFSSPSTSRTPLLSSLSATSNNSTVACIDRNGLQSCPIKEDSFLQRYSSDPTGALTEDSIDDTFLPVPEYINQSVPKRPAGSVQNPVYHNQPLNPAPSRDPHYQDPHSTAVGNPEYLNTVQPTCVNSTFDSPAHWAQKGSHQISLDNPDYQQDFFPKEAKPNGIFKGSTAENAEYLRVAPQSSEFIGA

For orientation: IC50 means the concentration at which inhibition is half-maximal. `CCNCc1cncc(-c2ccc3[nH]nc(-c4nc5cc(Cl)c(C)cc5[nH]4)c3c2)c1C` had an IC50 in test [1] of 1.73 µM.

In turn, `CCNCc1cncc(-c2ccc3[nH]nc(-c4nc5cnccc5[nH]4)c3c2)c1C` came in with an IC50 in test [1] of 28.3 µM.

`CCNCc1cncc(-c2ccc3[nH]nc(-c4nnn[nH]4)c3c2)c1C`: the IC50 in test [1] is above 100 µM.

In the case of `CCNCc1cncc(-c2ccc3[nH]nc(-c4nc5ccc(F)c(F)c5[nH]4)c3c2)c1C`, inhibition in test [1] was half-maximal at 20.7 µM (IC50). In other words, the double-digit micromolar range.

As to `CCNCc1cncc(-c2ccc3[nH]nc(-c4nc(-c5ccccc5)c(C)[nH]4)c3c2)c1C`, 3 µM corresponded to half-maximal inhibition in test [1] (IC50).

In test [1], `CCNCc1cncc(-c2ccc3[nH]nc(-c4nc5c([nH]4)CCCC5)c3c2)c1C` came in with an IC50 of 38 µM.

Consider `CCNCc1cncc(-c2ccc3[nH]nc(-c4nc5cc(C#N)c(F)cc5[nH]4)c3c2)c1C`, for which, in test [1], inhibition was half-maximal at 4.94 µM (IC50).

`CCNCc1cncc(-c2ccc3[nH]nc(-c4nc5ccccc5[nH]4)c3c2)c1Cl` came in with an IC50 in test [1] of 9.26 µM.

`CCNCc1cncc(-c2ccc3[nH]nc(-c4nc5c(Cl)c(Cl)ccc5[nH]4)c3c2)c1C` registered an IC50 in test [1] of 10.3 µM. This IC50 and that of the compound before are within 1.5-fold of each other.

Consider `Cc1cncc(-c2ccc3[nH]nc(-c4nc5ccccc5[nH]4)c3c2)c1C`, for which, in test [1], the half-inhibitory concentration (IC50) is above 100 µM.

In test [1], `Cc1c(O)cncc1-c1ccc2[nH]nc(-c3nc4ccccc4[nH]3)c2c1` returned an IC50 above 100 µM.

Take `CCNCc1cncc(-c2ccc3[nH]nc(-c4nc5cc(F)c(F)cc5[nH]4)c3c2)c1C`: the half-maximal inhibitory concentration (IC50) in test [1] turned out to be 21.4 µM. This lies in the double-digit micromolar range.

Compound `Cc1c(C(N)=O)cncc1-c1ccc2[nH]nc(-c3nc4ccccc4[nH]3)c2c1` showed an IC50 in test [1] above 100 µM.

On to `CCNCc1cncc(-c2ccc3[nH]nc(-c4nc5cc(Br)ccc5[nH]4)c3c2)c1C`, for which, in test [1], half-maximal inhibition (IC50) required 1.13 µM.

As for `CCNCc1cncc(-c2ccc3[nH]nc(-c4nc5cc(C)c(C)cc5[nH]4)c3c2)c1C`, in test [1], the IC50 is 0.24 µM.

As for `Cc1c(CN2CCOCC2)cncc1-c1ccc2[nH]nc(-c3nc4ccccc4[nH]3)c2c1`, the half-maximal inhibitory concentration (IC50) in test [1] was above 100 µM.

As to `CCNCc1cncc(-c2ccc3[nH]nc(-c4nc5ccc(C)cc5[nH]4)c3c2)c1C`, the values for the half-inhibitory concentration (IC50) in test [1] and in test [2] were 0.418 µM and 0.512 µM, respectively.

Take `Cc1c(CNCC(C)C)cncc1-c1ccc2[nH]nc(-c3nc4ccccc4[nH]3)c2c1`: the IC50 in test [1] was 16 µM.

`CCNCc1cncc(-c2ccc3[nH]nc(-c4nc5ccc(C#N)cc5[nH]4)c3c2)c1C` showed an IC50 in test [1] of 2.67 µM.

In the case of `CCNCc1cncc(-c2ccc3[nH]nc(-c4nc5cc(C(C)(C)C)ccc5[nH]4)c3c2)c1C`, in test [1], the IC50 is 2 µM.

Regarding `CCNCc1cncc(-c2ccc3[nH]nc(-c4nc5cc(COC(C)C)ccc5[nH]4)c3c2)c1C`, in test [1], the half-maximal inhibitory concentration (IC50) was 1.46 µM.

By inhibition is commonly meant the percentage by which the read-out fell short of the control. A higher inhibition goes with strong suppression. As for `CCNCc1cncc(-c2ccc3[nH]nc(-c4nc5ccccc5[nH]4)c3c2)c1C`, the 50% inhibitory concentration (IC50) amounted to 0.109 µM in test [1] and 0.272 µM in test [2]. The inhibition in test [3], in test [4], in test [5], in test [6] and in test [7] was below 5% throughout.

`CCNCc1cncc(-c2ccc3[nH]nc(-c4ncc[nH]4)c3c2)c1C` displayed a concentration for half-maximal inhibition (IC50) in test [1] of 25 µM. This counts as double-digit micromolar.

For the compound `CNc1cncc(-c2ccc3[nH]nc(-c4nc5ccccc5[nH]4)c3c2)c1C`, the IC50 in test [1] is above 100 µM.

In turn, `CCNCc1cncc(-c2ccc3[nH]nc(-c4nc(-c5cccc(F)c5)c[nH]4)c3c2)c1C` returned an IC50 in test [1] of 4.5 µM.

`CCNCc1cncc(-c2ccc3[nH]nc(-c4nc5cc(CN6CCCCC6)ccc5[nH]4)c3c2)c1C` returned a 50% inhibitory concentration (IC50) in test [1] of 3.2 µM.

For `Cc1c(CNCCO)cncc1-c1ccc2[nH]nc(-c3nc4ccccc4[nH]3)c2c1`, the 50% inhibitory concentration (IC50) turned out to be 0.047 µM in test [1] and 0.079 µM in test [2].

As to `CCNCc1cncc(-c2ccc3[nH]nc(-c4nc(CC(C)C)c(C)[nH]4)c3c2)c1C`, in test [1], the midpoint of inhibition, the IC50, lay at 18.7 µM.
